Source: patent publication US12162876B2, “Indazole kinase inhibitor and use thereof” (Tarapeutics Science Inc., priority 2018, dated 2024)

Tests used:
Assay type in all cases: cell-based
[1] = tested on: TEL-VEGFR2-BaF3; experiment: Cell proliferation (CCK-8, 72 h), TEL-VEGFR2-BaF3; conditions: Mus musculus, BaF3 expressing VEGFR2 kinase
Excerpt: (§1) In this example, human gastrointestinal stromal tumor cell line GIST-T1 (expressing wild-type C-KIT gene) (purchased from Cosmo Bio Co., Ltd. (Japan)), human gastrointestinal stromal tumor cell line GIST-T1-T670I (expressing C-KIT-T670I mutant gene) (constructed by our laboratory with CRISPR technology), mouse […] BaF3 (purchased from ATCC) were used. In addition, in this Example, mouse Tel-cKit-BaF3 (stably expressing C-KIT wild-type kinase), mouse Tel-cKit/T670I-BaF3 (stably expressing cKIT T670I mutant kinase), mouse Tel-PDGFRα-BaF3 (stably expressing PDGFRα kinase), mouse Tel-PDGFRβ-BaF3 (stably expressing PDGFRβ kinase), mouse Tel-VEGFR2-BaF3 (stably expressing VEGFR2 kinase), mouse Tel-FLT3-BaF3 (stably expressing FLT3 kinase) were also used. The above cell lines were all constructed by our laboratory. The construction method was as follows: the human C-KIT, C-KIT T670I, PDGFRα, PDGFRβ, VEGFR2, FLT3 kinase region sequences were amplified by PCR respectively and inserted into MSCV-Puro vector (purchased from Clontech) with N-terminal TEL fragment and/or NPM fragment and/or TPR fragment respectively, which was stably transferred into mouse BaF3 cells by retroviral method, and IL-3 growth factor was removed, and finally the cell lines in which protein was transferred depending on C-KIT, C-KIT/T670I, PDGFRα, PDGFRβ, VEGFR2, FLT3 were obtained. The GIST-T1-T670I (expressing C-KIT-T670I mutant gene) cell line was constructed by our laboratory. The construction method was as follows: the sgRNA targeting near the T670 site of the KIT gene was designed by the CRISPR design tool of the Zhang Feng Laboratory of the Massachusetts Institute of Technology (URL: crispr.mit.edu) and cloned into pSpCas9(BB)-2A-Puro vector (Addgene, USA); the obtained vector and a single-stranded oligonucleotide with T670I mutation near the T670 site were co-transfected into the cells, and after antibiotic selection, they were diluted and cultured in a single cell in a 96-well plate; the T670 site of the cells was sequenced and verified by the Sanger sequencing method.

[2] = tested on: TEL-cKIT-BaF3; experiment: Cell proliferation (CCK-8, 72 h), TEL-cKIT-BaF3; conditions: Mus musculus, BaF3 expressing wild-type C-KIT kinase
Excerpt: as §1

[3] = tested on: BaF3; experiment: Cell proliferation (CCK-8, 72 h), parental BaF3; conditions: Mus musculus, parental BaF3 cells
Excerpt: as §1

[4] = tested on: TEL-cKIT/T670I-BaF3; experiment: Cell proliferation (CCK-8, 72 h), TEL-cKIT/T670I-BaF3; conditions: Mus musculus; BaF3 expressing cKIT T670I mutant kinase, 72 h, CCK-8; read-out: GI50 TEL-cKIT/T670I-BaF3
Excerpt: as §1

[5] = tested on: TEL-PDGFRβ-BaF3; experiment: Cell proliferation (CCK-8, 72 h), TEL-PDGFRβ-BaF3; conditions: Mus musculus, BaF3 expressing PDGFRβ kinase
Excerpt: as §1

[6] = tested on: TEL-FLT3-BaF3; experiment: Cell proliferation (CCK-8, 72 h), TEL-FLT3-BaF3; conditions: Mus musculus, BaF3 expressing FLT3 kinase
Excerpt: as §1

[7] = tested on: TEL-PDGFRα-BaF3; experiment: Cell proliferation (CCK-8, 72 h), TEL-PDGFRα-BaF3; conditions: Mus musculus, BaF3 expressing PDGFRα kinase
Excerpt: as §1

SMILES | GI50 [1] | GI50 [2] | GI50 [4] | GI50 [5] | GI50 [6] | GI50 [7] | GI50 [3]
COc1ccc(CC(=O)Nc2nc(C)c(-c3ccc4c(/C=C/c5ccccn5)n[nH]c4c3)s2)cc1OC [Compound 8, (E)-2-(3,4-methoxyphenyl)-N-(4-methyl-5-(3-(2-(pyridin-2-yl)vinyl)-1H-indazol-6-yl)thiazol-2-yl)acetamide] | 19 nM | 216 nM | 19 nM | – | 0.4 nM | 1.2 nM | 4870 nM
Cc1nc(NC(=O)CN2CCN(C)CC2)sc1-c1ccc2c(-c3cnn(C)c3)n[nH]c2c1 [Compound 21, N-(4-methyl-5-(3-(1-methyl-1H-pyrazol-4-yl)-1H-indazol-6-yl)thiazol-2-yl)-2-(4-methylpiperazin-1-yl)acetamide] | – | 2740 nM | 984 nM | – | 68 nM | – | > 10000 nM
Cc1nc(NC(=O)c2ccc(Cl)c(C(F)(F)F)c2)sc1-c1ccc2c(/C=C/c3ccccn3)n[nH]c2c1 [Compound 2, (E)-4-chloro-N-(4-methyl-5-(3-(2-(pyridin-2-yl)vinyl)-1H-indazol-6-yl)thiazol-2-yl)-3-(trifluoromethyl)benzamide] | 40 nM | 135 nM | 84 nM | 13 nM | 4 nM | 2 nM | > 10000 nM
Cc1nc(NC(=O)CN2CCN(C)CC2)sc1-c1ccc2c(-c3cccnc3)n[nH]c2c1 [Compound 24, N-(4-methyl-5-(3-(pyridin-3-yl)-1H-indazol-6-yl)thiazol-2-yl)-2-(4-methylpiperazin-1-yl)acetamide] | – | 3210 nM | 114 nM | – | 12 nM | – | 5130 nM
Cc1nc(NC(=O)C(C)C)sc1-c1ccc2c(/C=C/c3ccccn3)n[nH]c2c1 [Compound 19, (E)-N-(4-methyl-5-(3-(2-(pyridin-2-yl)vinyl)-1H-indazol-6-yl)thiazol-2-yl) isobutanamide] | – | 519 nM | 41 nM | – | 4 nM | – | 1580 nM
Cc1nc(NC(=O)C(O)CC(C)C)sc1-c1ccc2c(/C=C/c3ccccn3)n[nH]c2c1 (centres unmarked) [Compound 22, (E)-2-hydroxyl-4-methyl-N-(4-methyl-5-(3-(2-(pyridin-2-yl)vinyl)-1H-indazol-6-yl)thiazol-2-yl)pentanamide] | – | 1010 nM | 34 nM | – | 2 nM | – | 1530 nM
Cc1nc(NC(=O)Cc2cccc(C(F)(F)F)c2)sc1-c1ccc2c(-c3cccnc3)n[nH]c2c1 [Compound 28, N-(4-methyl-5-(3-(pyridin-3-yl)-1H-indazol-6-yl)thiazol-2-yl)-2-(3-(trifluoromethyl)phenyl)acetamide] | – | 48 nM | 7 nM | – | 0.1 nM | – | 2490 nM
CSCCC(N)C(=O)Nc1nc(C)c(-c2ccc3c(/C=C/c4ccccn4)n[nH]c3c2)s1 (centres unmarked) [Compound 15, (E)-2-amino-N-(4-methyl-5-(3-(2-(pyridin-2-yl)vinyl)-1H-indazol-6-yl)thiazol-2-yl)-4-(methylthio)butanamide] | – | 961 nM | 16 nM | – | 2 nM | – | 594 nM
Cc1nc(NC(=O)C(C)N)sc1-c1ccc2c(/C=C/c3ccccn3)n[nH]c2c1 (centres unmarked) [Compound 17, (E)-2-amino-N-(4-methyl-5-(3-(2-(pyridin-2-yl)vinyl)-1H-indazol-6-yl)thiazol-2-yl)propionamide] | – | 460 nM | 88 nM | – | 4 nM | – | 544 nM

More lines, in order of falling GI50 [2], values ahead:

GI50 [1] | GI50 [2] | GI50 [4] | GI50 [5] | GI50 [6] | GI50 [7] | SMILES | GI50 [3]
– | 1460 nM | 241 nM | – | 18 nM | – | Cc1nc(NC(=O)CN2CCN(C)CC2)sc1-c1ccc2c(-c3cncc(F)c3)n[nH]c2c1 [Compound 25, N-(5-(3-(5-fluoropyridin-3-yl)-1H-indazol-6-yl)-4-methylthiazole-2-yl)-2-(4-methylpiperazin-1-yl)acetamide] | 1690 nM
– | 1350 nM | 323 nM | – | 2150 nM | – | Cc1nc(NC(=O)C2CCN(C)CC2)sc1-c1ccc2c(/C=C/c3ccccn3)n[nH]c2c1 [Compound 16, (E)-1-methyl-N-(4-methyl-5-(3-(2-(pyridin-2-yl)vinyl)-1H-indazol-6-yl)thiazol-2-yl)piperidin-4 carboxamide] | 1510 nM
– | 1020 nM | 83 nM | – | 26 nM | – | Cc1nc(NC(=O)CN2CCN(C)CC2)sc1-c1ccc2c(-c3cccc(F)c3)n[nH]c2c1 [Compound 26, N-(5-(3-(3-fluorophenyl)-1H-indazol-6-yl)-4-methylthiazol-2-yl)-2-(4-methylpiperazin-1-yl)acetamide] | 1040 nM
– | 507 nM | 37 nM | – | 6 nM | – | Cc1nc(NC(=O)C(N)CC(C)C)sc1-c1ccc2c(/C=C/c3ccccn3)n[nH]c2c1 (centres unmarked) [Compound 18, (E)-2-amino-4-methyl-N-(4-methyl-5-(3-(2-(pyridin-2-yl)vinyl)-1H-indazol-6-yl)thiazol-2-yl)pentanamide] | 706 nM
– | 361 nM | 37 nM | – | 3 nM | – | Cc1nc(NC(=O)C(N)Cc2ccccc2)sc1-c1ccc2c(/C=C/c3ccccn3)n[nH]c2c1 (centres unmarked) [Compound 20, (E)-2-amino-N-(4-methyl-5-(3-(2-(pyridin-2-yl)vinyl)-1H-indazol-6-yl)thiazol-2-yl)-3-phenylpropionamide] | 708 nM
– | 133 nM | 13 nM | – | 0.5 nM | – | Cc1nc(NC(=O)CN2CCN(C)CC2)sc1-c1ccc2c(-c3cnc(N)nc3)n[nH]c2c1 [Compound 23, N-(5-(3-(2-aminopyrimidin-5-yl)-1H-indazol-6-yl)-4-methylthiazol-2-yl)-2-(4-methylpiperazin-1-yl)acetamide] | 1560 nM
– | 94 nM | 1 nM | – | < 1 nM | – | Cc1nc(NC(=O)CC2CCN(C)CC2)sc1-c1ccc2c(/C=C/c3ccccn3)n[nH]c2c1 [Compound 27, (E)-N-(4-methyl-5-(3-(2-(pyridin-2-yl)vinyl)-1H-indazol-6-yl)thiazol-2-yl)-2-(1-methylpiperidin-4-yl)acetamide] | 605 nM
9.8 nM | 70 nM | 37 nM | – | 2 nM | 1.3 nM | Cc1nc(NC(=O)Cc2cccc(Cl)c2)sc1-c1ccc2c(/C=C/c3ccccn3)n[nH]c2c1 [Compound 10, (E)-2-(3-chlorophenyl)-N-(4-methyl-5-(3-(2-(pyridin-2-yl)vinyl)-1H-indazol-6-yl)thiazol-2-yl)acetamide] | 4100 nM
13 nM | 35 nM | 28 nM | 12 nM | 0.1 nM | 2 nM | Cc1nc(NC(=O)Cc2cccc(C(F)(F)F)c2)sc1-c1ccc2c(/C=C/c3ccccn3)n[nH]c2c1 [Compound 3, (E)-N-(4-methyl-5-(3-(2-(pyridin-2-yl)vinyl)-1H-indazol-6-yl)thiazol-2-yl)-2-(3-(trifluoromethyl)phenyl)acetamide] | 2310 nM
< 0.1 nM | 20 nM | 48 nM | 2 nM | 300 nM | 1.4 nM | CNC(=O)c1ccccc1Sc1ccc2c(/C=C/c3ccccn3)n[nH]c2c1 [Axitinib, reference compound] | 430 nM
